pKd: −log10 of the molar value. Entries after “also recorded” stand apart in the source; their conditions may differ.
What was measured:
[1] = target: BtsuOBP83a; assay: Fluorescence competitive binding assay (1-NPN probe), recombinant BtsuOBP83a; set-up: species or system Bactrocera tsuneonis; details: for Ki: relative dissociation constant calculated from IC50, competition with 1-NPN, ligand 4–32 μmol/L, pH 7.4, read-out: Ki (μM) OBP83a; for binding to BtsuOBP83a (in words): fluorescence competitive binding assay
From the text: (§1) Full-length sequences of BtsuOBP83a and BtsuOBP83b were amplified using specific primers (Supplementary Table S1). Purified PCR products were cloned into the pGEM-T vector (Promega) for sequencing verification. The confirmed target fragments were then subcloned into the pET-30a(+) expression vector (Sangon) using restriction enzymes (Supplementary Table S2) and T4 DNA ligase (Takara). Recombinant plasmids were transformed into Escherichia coli BL21 (DE3) competent cells (Tiangen). Bacterial cultures were grown to an OD600 of 0.6–0.8, after which protein expression was induced by adding isopropyl-β-D-thiogalactopyranoside (IPTG) (Solarbio) to a final concentration of 1 mM at different temperatures. Cells were harvested by centrifugation (5,000 × g, 15 minutes), lysed in phosphate-buffered saline buffer via sonication, and subjected to sodium dodecyl sulfate–polyacrylamide gel electrophoresis (SDS-PAGE) analysis after heat treatment. Large-scale protein expression was performed under optimized induction conditions. Soluble proteins in the supernatant were purified twice using Ni-affinity chromatography (GE Healthcare). His-tags were removed using enterokinase (Novoprotein). All purification steps were conducted at 4°C. The size and purity of OBP proteins were evaluated via SDS-PAGE, and protein concentrations were determined using the Bradford method.
(§2) The ligand-binding affinities of candidate OBPs were evaluated using fluorescence competitive binding assays performed on an F-380 Fluorescence Spectrophotometer (Tianfang), with modifications to the standard procedure. Purified OBP proteins were diluted to a final concentration of 2 μmol/L in 50 mmol/L Tris-HCl buffer (pH 7.4). The fluorescent probe N-phenyl-1-naphthylamine (1-NPN) and all candidate volatile ligands were dissolved in high-performance liquid chromatography–grade methanol at an initial concentration of 1 mmol/L. The binding constant between OBPs and 1-NPN was determined by recording emission spectra from 350 to 470 nm at an excitation wavelength of 337 nm. To establish binding saturation, titrations were conducted by sequentially adding 1-NPN to the protein solution, reaching final concentrations of 2–20 μmol/L in 2-μmol/L increments. Fluorescence intensity was measured after stabilization, and each measurement was performed in triplicate. […] Each experiment was conducted in triplicate. Dissociation constants (Ki) for the volatile ligands were calculated from the corresponding IC50 values using the following equation: […]

[2] = target: BtsuOBP83b; assay: Fluorescence competitive binding assay (1-NPN probe), recombinant BtsuOBP83b; set-up: species or system Bactrocera tsuneonis; details: for Ki: relative dissociation constant calculated from IC50, competition with 1-NPN, ligand 4–32 μmol/L, pH 7.4, read-out: Ki (μM) OBP83b
From the text: as §1, §2

| SMILES | Ki [1] | Ki [2] | pKd ([1]; BtsuOBP83a 2 μmol/L, 50 mmol/L Tris-HCl pH 7.4, 1-NPN 2–20 μmol/L, Scatchard, read-out: dissociation constants (Kd) for 1-NPN) | pKd ([2]; BtsuOBP83b 2 μmol/L, 50 mmol/L Tris-HCl pH 7.4, 1-NPN 2–20 μmol/L, Scatchard, read-out: dissociation constants (Kd) for 1-NPN) | binding to BtsuOBP83a (in words) [1] |
| --- | --- | --- | --- | --- | --- |
| c1ccc(Nc2cccc3ccccc23)cc1 [1-NPN, N-phenyl-1-naphthylamine, reference compound] |  |  | 5.26 | 5.16 |  |
| CCCCCCO [1-Hexanol] | > 50 µM | 31.8 µM |  |  |  |
| CCCCOC(=O)CC [Butyl propionate] | > 50 µM | > 50 µM |  |  |  |
| CC1=CCCC1 [1-Methylcyclopentene] | > 50 µM | > 50 µM |  |  |  |
| CCCCCCCCO [1-Octanol] | 36.4 µM | 39.1 µM |  |  |  |
| CCC/C=C/COC(=O)CC [trans-2-Hexenyl propionate] | > 50 µM | > 50 µM |  |  |  |
| CC1=CC[C@@H](C(C)(C)O)CC1 [(L)-alpha-terpineol] | > 50 µM | > 50 µM |  |  |  |
| CCCCCCCCCCCCF [1-Fluorododecane] | > 50 µM | > 50 µM |  |  |  |
| CCc1ccco1 [2-Ethylfuran] | > 50 µM | > 50 µM |  |  |  |
| CC/C=C\CCOC(=O)CC [cis-3-Hexenyl propionate] | > 50 µM | > 50 µM |  |  |  |
| CCCC=CC=O [2-Hexenal] | 42.7 µM | 31.9 µM |  |  |  |
| CCc1ccccc1 [Ethylbenzene] | > 50 µM | > 50 µM |  |  |  |
| CC(C)c1ccccc1 [Cumene] | > 50 µM | > 50 µM |  |  |  |
| C=CC(C)(O)CC/C=C(\C)CCC=C(C)C (stereo not drawn) [trans-Nerolidol] | 9.36 µM | > 50 µM |  |  | selectively binds; also recorded: binds strongly; also recorded: strong binding affinity |
| CCCCC(=O)OCC [Ethyl valerate] | > 50 µM | > 50 µM |  |  |  |
| C=Cc1ccccc1 [Styrene] | > 50 µM | > 50 µM |  |  |  |
| COc1cc(C)ccc1C(C)C [2-Isopropyl-5-methylanisole] | > 50 µM | > 50 µM |  |  |  |
| C=C(C)[C@H]1CC=C(C)C(=O)C1 [d-Carvone] | > 50 µM | > 50 µM |  |  |  |
| Cc1ccc(C(C)C)cc1O [Carvacrol] | > 50 µM | > 50 µM |  |  |  |

The next lines start with results.

| Ki [1] | Ki [2] | SMILES | pKd ([1]; BtsuOBP83a 2 μmol/L, 50 mmol/L Tris-HCl pH 7.4, 1-NPN 2–20 μmol/L, Scatchard, read-out: dissociation constants (Kd) for 1-NPN) | pKd ([2]; BtsuOBP83b 2 μmol/L, 50 mmol/L Tris-HCl pH 7.4, 1-NPN 2–20 μmol/L, Scatchard, read-out: dissociation constants (Kd) for 1-NPN) | binding to BtsuOBP83a (in words) [1] |
| --- | --- | --- | --- | --- | --- |
| > 50 µM | > 50 µM | C=C1CC/C=C(\C)CC[C@@H]2[C@@H]1CC2(C)C [beta-Caryophyllene] |  |  |  |
| > 50 µM | 28.5 µM | CCC/C=C/COC(=O)CCC [trans-2-Hexenyl Butyrate] |  |  |  |
| 32.1 µM | 31.8 µM | CC/C=C\CCO [cis-3-Hexen-1-ol] |  |  |  |
| 40.7 µM | 33.7 µM | CCCCCC=O [Hexanal] |  |  |  |
| > 50 µM | > 50 µM | CCCCCCCC(=O)OCCCC [Butyl caprylate] |  |  |  |
| > 50 µM | > 50 µM | CCCCOC(=O)CCC [Butyl butyrate] |  |  |  |
| 46.3 µM | > 50 µM | CCCCC/C=C/C(=O)OCC [Ethyl trans-2-octenoate] |  |  |  |
| > 50 µM | > 50 µM | C/C=C/C(=O)OCC [Ethyl crotonate] |  |  |  |
| 17.9 µM | > 50 µM | CC1=CC(=O)C(C(C)C)CC1 (stereo not drawn) [Piperitone] |  |  | selectively binds; also recorded: binds strongly; also recorded: strong binding affinity |
| > 50 µM | > 50 µM | CCCCOC(=O)C(C)CC (stereo not drawn) [Butyl 2-methylbutyrate] |  |  |  |
| > 50 µM | > 50 µM | CC(C)=CCC/C(C)=C\CO [Nerol] |  |  |  |
| > 50 µM | > 50 µM | CCCCCCCCOC(C)=O [Octyl acetate] |  |  |  |
| > 50 µM | > 50 µM | C=C1CC/C=C(/C)CC[C@@H]2[C@@H]1CC2(C)C [Isocaryophyllene] |  |  |  |
| > 50 µM | > 50 µM | CCCCCC(=O)OCCC [Propyl Hexanoate] |  |  |  |
| > 50 µM | > 50 µM | CCOC(=O)C(C)CC (stereo not drawn) [Ethyl 2-methylbutyrate] |  |  |  |
| > 50 µM | 40.2 µM | CC(C)CCO [Isopentyl alcohol] |  |  |  |
| 49.2 µM | > 50 µM | CC1=CCC2CC1C2(C)C (stereo not drawn) [alpha-Pinene] |  |  |  |
| > 50 µM | > 50 µM | CCCCCC(=O)OCC [Ethyl hexanoate] |  |  |  |
| > 50 µM | > 50 µM | CCCC(=O)OCCC(C)C [Isoamyl butyrate] |  |  |  |
| > 50 µM | > 50 µM | CC(=O)OC/C=C(/C)CCC=C(C)C [Neryl acetate] |  |  |  |
| > 50 µM | > 50 µM | C#Cc1cccc(N)c1 [3-Ethynylaniline] |  |  |  |
| > 50 µM | 33.5 µM | CC(=O)OCCC(C)C [Isoamyl acetate] |  |  |  |
| > 50 µM | > 50 µM | CC1=C[C@@H]2C(=C(C)CC[C@H]2C(C)C)CC1 [(+)-delta-Cadinene] |  |  |  |
| > 50 µM | 33 µM | CCOC(C)=O [Ethylacetate] |  |  |  |
| > 50 µM | > 50 µM | CC1=CCCC(C)(C)C12CCC(C)O2 (stereo not drawn) [Theaspirane] |  |  |  |

Source: paper PMC12723664, “A high-quality chromosome-level genome assembly of the oligophagous fruit fly Bactrocera tsuneonis (Diptera: Tephritidae) and insights into its host specificity” (GigaScience, 2025)
